# Assay results: patent US5318964A, “Hydroxamic derivatives and pharmaceutical compositions” (Hoffmann-La Roche Inc., priority 1992, dated 1994)
# Target: T1, collagenase obtained from a culture of human synovial fibroblasts (Homo sapiens, UniProt P03956)
# T1 construct: endogenous in cells; host or cells: human synovial fibroblasts in culture (conditioned medium)
# T1 sequence (P03956 100-469): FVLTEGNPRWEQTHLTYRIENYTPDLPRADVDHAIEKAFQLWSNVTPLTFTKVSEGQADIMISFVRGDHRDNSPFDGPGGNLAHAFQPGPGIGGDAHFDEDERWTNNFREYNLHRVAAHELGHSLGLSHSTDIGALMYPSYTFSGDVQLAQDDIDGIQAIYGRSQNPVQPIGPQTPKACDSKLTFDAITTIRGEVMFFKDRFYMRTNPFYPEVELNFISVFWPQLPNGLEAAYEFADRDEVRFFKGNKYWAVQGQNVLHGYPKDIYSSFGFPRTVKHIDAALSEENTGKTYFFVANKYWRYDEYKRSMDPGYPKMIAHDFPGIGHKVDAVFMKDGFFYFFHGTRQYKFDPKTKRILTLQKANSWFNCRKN
# Assay: in vitro collagenase inhibiting activity (14C-acetylated collagen type I from rat tail tendons as substrate, microtitre plate assay)
# Type: biochemical
# Settings: trypsin-activated collagenase from human synovial fibroblasts; 14C-acetylated collagen type I (rat tail tendons) substrate; concentration reducing substrate cleavage and solubilization to 50% of enzyme alone
# Method: As mentioned earlier, the compounds of formula I and their pharmaceutically acceptable salts are collagenase inhibitors. […] Collagenase activity was measured using ^14 C-acetylated collagen type I from rat tail tendons as the substrate and employing the microtitre plate assay method of Johnson-Wint, B, Anal. Biochem. (1980), 104, 175. The IC50 is that concentration of a compound or salt of the invention in the enzyme digestion which reduces substrate cleavage and solubilization to 50% of that achieved by the enzyme alone.
# The results obtained in the foregoing test with representative compounds and salts of the invention are compiled in Table I hereinafter: […]
row,IC50 [nM],Structure (SMILES)
1,15,"CC(C)C[C@@H](C(=O)N1CCCCC1)C(Cn1c(=O)n(C)n(C)c1=O)C(=O)NO (single isomer, unassigned) [Compound D, 1-[2(R)-[1(R or S)-(Hydroxycarbamoyl)-2-(1,2-dimethyl-3,5-dioxo-1,2,4-triazolidin-4-yl)ethyl]-4-methylvaleryl]piperidine]"
2,5,"CC(C)C[C@@H](C(=O)N1CCC(O)CC1)C(CN1C(=O)c2ccccc2C1=O)C(=O)NO (single isomer, unassigned) [Compound C, 1-[2(R)-[1(R or S)-(Hydroxycarbamoyl)-2-phthalimidoethyl]-4-methylvaleryl]-4-piperidinol]"
3,1.2,"CNC(=O)[C@@H]1CCCNN1C(=O)[C@H](CC(C)C)C(CN1C(=O)c2ccccc2C1=O)C(=O)NO (single isomer, unassigned) [Compound F, Hexahydro-2-[2(R)-[1(R or S)-(hydroxycarbamoyl)-2-phthalimidoethyl]-4-methylvaleryl]-N-methyl-3(S)-pyridazinecarboxamide]"
4,6.9,"CC(C)C[C@@H](C(=O)N1CCC(O)CC1)C(CN1C(=O)N(C)C(C)(C)C1=O)C(=O)NO (single isomer, unassigned) [Compound G, 1-[2(R)-[1(R or S)-(Hydroxycarbamoyl)-2-(3,4,4-trimethyl-2,5-dioxo-1-imidazolidinyl)ethyl]-4-methylvaleryl]-4-piperidinol]"
5,7,"CC(C)C[C@@H](C(=O)N1CCSCC1)C(CN1C(=O)CN(C)C1=O)C(=O)NO (single isomer, unassigned) [Compound E, 4-[2(R)-[1(R or S)-(Hydroxycarbamoyl)-2-(3-methyl-2,5-dioxo-1-imidazolidinyl)ethyl]-4-methylvaleryl]tetrahydro-1,4-thiazine]"
6,10,"CC(C)C[C@@H](C(=O)N1CCOCC1)C(CN1C(=O)c2ccccc2C1=O)C(=O)NO (single isomer, unassigned) [Compound A, 4-[2(R)-[1(R or S)-(Hydroxycarbamoyl)-2-phthalimidoethyl]-4-methylvalery]morpholine]"
7,6,"CC(C)C[C@@H](C(=O)N1CCSCC1)C(CN1C(=O)c2ccccc2C1=O)C(=O)NO (single isomer, unassigned) [Compound B, 4-[2(R)-[1(R or S)-(Hydroxycarbamoyl)-2-phthalimidoethyl]-4-methylvaleryl]tetrahydro-1,4-thiazine]"
